Experimental data taken from patent US11547681B2, “N-acylethanolamide derivatives and uses thereof” (ELIEM THERAPEUTICS, INC., priority 2016, dated 2023).
Read-outs that look alike come from different tables or passages of the source.

Columns and labels:
in vitro [1] = settings: s9
Protocol: Reaction mixture, minus cofactors, was prepared as described below. Test article was added into the reaction mixture at a final concentration of 1 μM. […] An aliquot of the reaction mixture (without cofactor cocktail) was equilibrated in a shaking water bath at 37° C. for 3 minutes. The reaction was initiated by the addition of cofactor cocktail (see below), and the mixture was then incubated in a shaking water bath at 37° C. Aliquots (100 μL) were withdrawn 0, 10, 20, 30 and 60 minutes. Test article samples were immediately combined with 300 μL of ice-cold acetonitrile containing 1% formic acid. Control samples were immediately combined with 400 μL of ice-cold 50/50 acetonitrile (ACN)/dH2O containing 0.1% formic acid and internal standard to terminate the reaction. Samples were then mixed and centrifuged to precipitate proteins. Calibration standards were prepared in matched matrix. Samples and standards were assayed by LC-MS/MS using electrospray ionization for both the dosed prodrug and the expected drug (PEA). Analytical conditions are outlined in Appendix 8-1. Test article concentration at each time point was compared to the test article concentration at time 0 to determine the percent remaining at each time point. Half-lives were calculated using GraphPad software, fitting to a single-phase exponential decay equation.
Reaction mixture, minus cofactors, was prepared as described below. Test article was added into the reaction mixture at a final concentration of 1 μM. […] An aliquot of the reaction mixture (without cofactor cocktail) was equilibrated in a shaking water bath at 37° C. for 5 minutes. Reaction was initiated by the addition of cofactor cocktail (see below), and mixture was then incubated in a shaking water bath at 37° C. Aliquots (100 μL) were withdrawn at 0, 10, 20, 30, and 60 minutes. Test article samples were immediately combined with 300 μL of ice-cold acetonitrile containing 1% formic acid. Control samples were immediately combined with 400 μL of ice-cold 50/50 acetonitrile (ACN)/dH2O containing 0.1% formic acid and internal standard to terminate the reaction. Samples were then mixed and centrifuged to precipitate proteins. Calibration standards were prepared in matched matrix. Samples and standards were assayed by LC-MS/MS using electrospray ionization for both dosed prodrug and expected drug (PEA). Analytical conditions are outlined in Appendix 10-1. Test article concentration at each time point was compared to test article concentration at time 0 to determine the percent remaining at each time point. Half-lives were calculated using GraphPad software, fitting to a single-phase exponential decay equation.
The reaction mixture, minus cofactors, was prepared as described below. Test article was added into the reaction mixture at a final concentration of 1 μM. […] An aliquot of the reaction mixture (without cofactor cocktail) was equilibrated in a shaking water bath at 37° C. for 3 minutes. Reaction was initiated by the addition of cofactor cocktail (see below), and the mixture was then incubated in a shaking water bath at 37° C. Aliquots (100 μL) were withdrawn at 0, 10, 20, 30, and 60 minutes. Test article samples were immediately combined with 300 μL of ice-cold acetonitrile containing 1% formic acid. Control samples were immediately combined with 400 μL of ice-cold 50/50 acetonitrile (ACN)/dH2O containing 0.1% formic acid and internal standard to terminate the reaction. Samples were then mixed and centrifuged to precipitate proteins. Calibration standards were prepared in matched matrix. Samples and standards were assayed by LC-MS/MS using electrospray ionization for both dosed prodrug and expected drug (PEA). Analytical conditions are outlined in Appendix 13-1. Test article concentration at each time point was compared to the test article concentration at time 0 to determine the percent remaining at each time point.

in vitro [2] = experiment: in vitro
Protocol: (§1) The reaction mixture, minus cofactors, was prepared as described below. The test article was added into the reaction mixture at a final concentration of 1 μM. […] An aliquot of the reaction mixture (without cofactor cocktail) was equilibrated in a shaking water bath at 37° C. for 3 minutes. The reaction was initiated by the addition of cofactor cocktail, and the mixture was incubated in a shaking water bath at 37° C. Aliquots (100 μL) were withdrawn at 0, 10, 20, 30, and 60 minutes. All samples were immediately combined with 400 uL of icecold 50/50 acetonitrile/H2O containing 0.1% formic acid and internal standard to terminate the reaction. The samples were then mixed and centrifuged to precipitate proteins. Calibration standards were prepared in matched matrix. All samples and standards were assayed by LC-MS/MS using electrospray ionization for both the dosed prodrug I-9 and the expected drug (PEA). Analytical conditions are outlined in Appendix 4-1. The test article concentration at each time point was compared to the test article concentration at time 0 to determine the percent remaining at each time point. Half-lives were calculated using GraphPad software, fitting to single-phase exponential decay equation.
(§2) Reaction mixture, minus cofactors, was prepared as described below. Test article was added into the reaction mixture at a final concentration of 1 μM. […] An aliquot of the reaction mixture (without cofactor cocktail) was equilibrated in a shaking water bath at 37° C. for 3 minutes. The reaction was initiated by the addition of cofactor cocktail, and the mixture was incubated in a shaking water bath at 37° C. Aliquots (100 μL) were withdrawn at 0, 10, 20, 30, and 60 minutes. Test article samples were immediately combined with 300 μL of ice-cold acetonitrile containing 1% formic acid. Control samples were immediately combined with 400 μL of ice-cold 50/50 acetonitrile (ACN)/dH2O containing 0.1% formic acid and internal standard to terminate the reaction. Samples were then mixed and centrifuged to precipitate proteins. Calibration standards were prepared in matched matrix. Samples and standards were assayed by LC-MS/MS using electrospray ionization for both the dosed prodrug and the expected drug (PEA). Analytical conditions are outlined in Appendix 8-1. Test article concentration at each time point was compared to test article concentration at time 0 to determine the percent remaining at each time point. Halflives were calculated using GraphPad software, fitting to a single-phase exponential decay equation.
as §2, with “for 5” for “for 3”, “minutes. Reaction” for “minutes. The reaction”, “and” for “and the”, “both” for “both the”, “Appendix 10-1.” for “Appendix 8-1.”
(§3) Reaction mixture, minus cofactors, was prepared as described below.

in vitro [3] = experiment: in vitro; remark: listed apart in the source
Protocol: as §1, §2
as §2, with “for 5” for “for 3”, “minutes. Reaction” for “minutes. The reaction”, “and” for “and the”, “both” for “both the”, “Appendix 10-1.” for “Appendix 8-1.”
as §3

in vitro [4] = experiment: in vitro; remark: listed apart in the source
Protocol: as §2
as §2, with “for 5” for “for 3”, “minutes. Reaction” for “minutes. The reaction”, “and” for “and the”, “both” for “both the”, “Appendix 10-1.” for “Appendix 8-1.”
(§4) Reaction mixture, minus cofactors, was prepared as described below. Test article was added into the reaction mixture at a final concentration of 1 μM. […] An aliquot of the reaction mixture (without cofactor cocktail) was equilibrated in a shaking water bath at 37° C. for 3 minutes. Reaction was initiated by the addition of cofactor cocktail, and the mixture was incubated in a shaking water bath at 37° C. Aliquots (100 μL) were withdrawn at 0, 10, 20, 30, and 60 minutes. Test article samples were immediately combined with 300 μL of ice-cold acetonitrile containing 1% formic acid. Control samples were immediately combined with 400 μL of ice-cold 50/50 acetonitrile (ACN)/dH2O containing 0.1% formic acid and internal standard to terminate the reaction. Samples were then mixed and centrifuged to precipitate proteins. Calibration standards were prepared in matched matrix. Samples and standards were assayed by LC-MS/MS using electrospray ionization for both dosed prodrug and expected drug (PEA). Analytical conditions are outlined in Appendix 13-1. Test article concentration at each time point was compared to test article concentration at time 0 to determine the percent remaining at each time point. Halflives were calculated using GraphPad software, fitting to a single-phase exponential decay equation.

in vitro [5] = experiment: in vitro; remark: listed apart in the source
Protocol: as §2
as §4, with “for 5” for “for 3”, “and” for “and the”, “Appendix 10-1.” for “Appendix 13-1.”
as §4

[6] = Simulated intestinal fluid stability, SIF containing pancreatin; format: in vitro ADME; settings: for % Remaining of Initial (n = 1): 1 μM; for Measured Concentration of Drug: test article dosed at 1 μM
Protocol: (§5) Studies were carried out in simulated intestinal fluid containing pancreatin. Simulated intestinal fluid was prepared by dissolving 6.8 g of monobasic potassium phosphate in 1.0 L of water. Pancreatin was then added to the solution and the pH was adjusted to 6.8. A DMSO stock was first prepared for the test articles. Aliquots of the DMSO solution were dosed into 300 μL of matrix, which had been pre-warmed to 37° C., at a final test article concentration of 1 μM. An individual tube was dosed for each time point. At each time point (0, 15, 30, 60, and 120 minutes), 900 μL of ice-cold acetonitrile containing 1.0% formic acid was added to an individual tube. Starting time for each tube was staggered such that all timepoints would finish at the same time. After the conclusion of the experiment, tubes were mixed and then centrifuged at 3,000 rpm for 10 minutes. Calibration standards were prepared in matched matrix. […] Analytical conditions are outlined in Appendix 11-1.
as §5, with “prepared for test articles.” for “prepared for the test articles.”, “Aliquots of DMSO solution” for “Aliquots of the DMSO solution”, “individual tube. The starting time for” for “individual tube. Starting time for”, “that all time points would finish” for “that all timepoints would finish”, “in Appendix 14-1.” for “in Appendix 11-1.”

[7] = male, Sprague-Dawley, rat, in vivo, po
Protocol: PEA was also dosed intravenously at 1 mg/kg. Blood samples were collected up to 8 hours post-dose, and PEA and PEA-prodrug plasma concentrations were determined with a qualified LC-MS/MS method. Pharmacokinetic analysis was conducted by a non-compartmental model using Phoenix WinNonlin v.6.4 software.
The IV dosing solution was prepared fresh on the day of dosing at 0.5 mg/mL in a vehicle comprised of 10% solutol HS15, 10% n-methylpyrrolidone (NMP), 10% polyethylene glycol 400 (PEG400), and 70% water. For PO dosing, torpac capsules were loaded with an appropriate amount of PEA, PEA-prodrug, or normast powder. […] The prodrug dose in group 5 was the maximum amount of powder that would fit into a single capsule.
The pharmacokinetics of PEA and the PEA-prodrug were evaluated in fasted male Sprague-Dawley rats. Rats were housed one per cage. Each rat was fitted with a jugular vein cannula (JVC) for blood collection. Rats intended for IV dosing were fitted with an additional JVC for dosing. Each study group was dosing in triplicate. Rats were fasted for a minimum of twelve hours prior to dosing. Food was returned at four hours post dosing. Animals had free access to water throughout the study.
Blood samples (˜300 μL) were collected from the rats via a JVC and placed into chilled polypropylene tubes containing sodium heparin as an anticoagulant, and 30 μL of 0.5 M citric acid. Samples were maintained chilled throughout processing. Blood samples were centrifuged at 4° C. and 3,000 g for 5 minutes. Plasma (˜150 μL) was then transferred to a chilled, labeled polypropylene tube containing 15 μL of 10% formic acid, placed on dry ice, and stored in a freezer maintained at −60° C. to −80° C.
Pharmacokinetic parameters were determined with Phoenix WinNonlin (v6.4) software using a non-compartmental model. Maximum plasma concentrations (C0) after IV dosing were estimated by extrapolation of the first two time points back to t=0. […] Area under the time concentration curve (AUC) was calculated using the linear trapezoidal rule with calculation to the last quantifiable data point, and with extrapolation to infinity if applicable. […] Mean residence time, MRT, was calculated by dividing the area under the moment curve (AUMC) by the AUC. Clearance (CL) was calculated from dose/AUC. Steady-state volume of distribution (Vss) was calculated from CL*MRT (mean residence time). Bioavailability was determined by dividing the individual PO dose normalized AUClast values by the average IV AUClast value. Any samples below the limit of quantitation were treated as zero for pharmacokinetic data analysis.
Measured concentrations of PEA in plasma samples were corrected by subtracting the concentration of PEA measured in the pre-dose samples. […] Any corrected values that were negative are reported as not determined (ND).

[8] = Summary of half life data (Table A), matrix not stated; format: in vitro ADME
[9] = tested on: patients with distal ulcerative colitis; settings: cited from earlier work

Q: For `O=c1ccc2ccc(O)cc2o1` [Compound 7-hydroxycourmann], which CLint (in vitro [1]; dog) is on record?
A: 0.512 ml/min/mg protein

Q: And the Half-life (in vitro [1]; dog)?
A: 1.4 min

Q: And the CLint (in vitro [1]; human)?
A: 0.0472 ml/min/mg protein

Q: And the Half-life (in vitro [1]; human)?
A: 15 min

Q: And the CLint (in vitro [1]; mouse)?
A: 0.313 ml/min/mg protein

Q: And the Half-life (in vitro [1]; mouse)?
A: 2.2 min

Q: And the CLint (in vitro [1]; rat)?
A: 0.362 ml/min/mg protein

Q: And the Half-life (in vitro [1]; rat)?
A: 1.9 min

Q: Which CLin (in vitro [2]) does the source give for `O=c1ccc2ccc(O)cc2o1` [Compound 7-hydroxycourmarin] here?
A: 0.0242 ml/min/mg protein

Q: What about the CLint (in vitro [2]; rat, s9) of the same compound?
A: 0.0320 ml/min/mg protein

Q: And the CLin (in vitro [3])?
A: 0.0522 ml/min/mg protein

Q: What about the CLint (in vitro [3]; human, s9) of the same compound?
A: 0.0698 ml/min/mg protein

Q: What about the CLin (in vitro [4]) of the same compound?
A: 0.0770 ml/min/mg protein

Q: What about the CLint (in vitro [4]; dog, s9) of the same compound?
A: 0.0799 ml/min/mg protein

Q: And the CLin (in vitro [5])?
A: 0.138 ml/min/mg protein

Q: What about the CLint (in vitro [5]; mouse, s9) of the same compound?
A: 0.160 ml/min/mg protein

Q: Which results are given for `O=c1ccc2ccc(O)cc2o1` [Compound 7-HC, 7-hydroxycoumarin, reference compound]?
A: microsomal CLint (in vitro [2]; male, Sprague-Dawley, rat, s9, Clint, control compound): 20.1 µL/min/mg; half-life (in vitro [2]; male, Sprague-Dawley, rat, s9, Half-life, control compound): 34 min; microsomal CLint (in vitro [3]; both, human, s9, Clint, control compound): 943 µL/min/mg; half-life (in vitro [3]; both, human, s9, Half-life (min)): 13 min; half-life (in vitro [3]; both, human, s9, Half-life, control compound): 7.3 min

Q: What does the source list for `CCCCCCCCCCCCCCCC(=O)NCCOC(=O)CCC(=O)OC[C@H](COC(=O)CCC)OC(=O)CCC` [Compound I-14]?
A: % Remaining of Initial (n = 1) ([6]; 0 min): 100%; Measured Concentration of Drug ([6]; 0 min): 0.19 µM; % Remaining of Initial (n = 1) ([6]; 15 min): 25%; Measured Concentration of Drug ([6]; 15 min): 0.047 µM; % Remaining of Initial (n = 1) ([6]; 30 min): <2.2%; Measured Concentration of Drug ([6]; 30 min): 0 µM; % Remaining of Initial (n = 1) ([6]; 60 min): <2.2%; Measured Concentration of Drug ([6]; 60 min): 0 µM; % Remaining of Initial (n = 1) ([6]; 120 min): <2.2%; Measured Concentration of Drug ([6]; 120 min): 0 µM; half-life at 1 μM ([6]; simulated intestinal fluid containing pancreatin, pH 6.8, 1 μM): 7.6 min; Bioavailability [7]: 4.39%; Dose-normalized AUC∞ (PEA) [7]: 4.81 kg·ng·h/mL/mg; half-life [8]: 7.5 min

Q: For `CCCC(=O)[O-].[Na+]` [sodium butyrate], which “discharge of blood ceased” value ([9]; after butyrate irrigation) is on record?
A: 9 of 10

Q: And the overall crypt proliferation ([9]; after butyrate irrigation)?
A: unchanged

Q: What about the “upper crypt-labeling index after butyrate irrigation” value ([9]; before 0.086±0.019) of the same compound?
A: 0.032±0.003

Q: What about the “histological degree of inflammation after butyrate irrigation” value ([9]; before 2.4±0.3) of the same compound?
A: 1.5±0.3

Q: What about the “endoscopic score after butyrate irrigation” value ([9]; before 6.5±0.4) of the same compound?
A: 3.8±0.8

Q: And the “stool frequency after butyrate irrigation” value ([9]; sodium butyrate 100 mmol/L enemas 2 weeks, 10 patients, before 4.7±0.5)?
A: 2.1±0.4 n/day

Q: What does the source list for `CCCCCCCCCCCCCCCC(=O)NCCOC(=O)CCC(=O)OC[C@@H](COC(=O)CCC)OC(=O)CCC` [Compound I-15]?
A: % Remaining of Initial (n = 1) ([6]; 0 min): 100%; Measured Concentration of Drug ([6]; 0 min): 0.18 µM; % Remaining of Initial (n = 1) ([6]; 15 min): <2.2%; Measured Concentration of Drug ([6]; 15 min): 0 µM; % Remaining of Initial (n = 1) ([6]; 30 min): <2.2%; Measured Concentration of Drug ([6]; 30 min): 0 µM; % Remaining of Initial (n = 1) ([6]; 60 min): <2.2%; Measured Concentration of Drug ([6]; 60 min): 0 µM; % Remaining of Initial (n = 1) ([6]; 120 min): <2.2%; Measured Concentration of Drug ([6]; 120 min): 0 µM; Bioavailability [7]: 3.42%; half-life [8]: < 1 min
